# Test results: the supplement of paper PMC10307832
# Key:
# Experiment in all cases: relative viability (nuclei count vs DMSO), 5 days (fraction); higher = more cells survive
# NCI-H2023 = system: NCI-H2023
# Method in brief: (§1)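 Values are medians from duplicate plates. Each reflects relative viability, defined as the nuclei count of treated wells over that of vehicle wells. Lung cancer cell lines in 1536-well plates were pin-tool dosed one day after seeding with one drug alone or with a fixed anchor-drug dose plus five library-drug doses (not always all listed) in √10 steps, then fixed, stained and imaged at 4× after 5 days.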
# NCI-H2342 = system: NCI-H2342
# Method in brief: as §1
# NCI-H2347 = system: NCI-H2347
# Method in brief: as §1
# NCI-H322M = system: NCI-H322M
# Method in brief: as §1
# NCI-H358 = system: NCI-H358
# Method in brief: as §1
# NCI-H441 = system: NCI-H441
# Method in brief: as §1
# NCI-H522 = system: NCI-H522
# Method in brief: as §1
# NCI-H647 = system: NCI-H647
# Method in brief: as §1
# NCI-H838 = system: NCI-H838
# Method in brief: as §1
# RERF-LC-KJ = system: RERF-LC-KJ
# Method in brief: as §1
# SW 1573 = system: SW 1573
# Method in brief: as §1
# UMC-11 = system: UMC-11
# Method in brief: as §1
smiles,measurement,setting,value
Cc1cn(-c2cc(NC(=O)c3ccc(C)c(Nc4nccc(-c5cccnc5)n4)c3)cc(C(F)(F)F)c2)cn1 [Nilotinib] + Nc1ncn([C@H]2C[C@H](O)[C@@H](CO)O2)c(=O)n1 [Decitabine] (partner 2 µM),relative viability,NCI-H2023; first compound 0.003162 µM,0.296
same,relative viability,NCI-H2023; first compound 0.01 µM,0.334
same,relative viability,NCI-H2023; first compound 0.03162 µM,0.271
same,relative viability,NCI-H2023; first compound 0.1 µM,0.298
same,relative viability,NCI-H2342; first compound 0.001 µM,0.704
same,relative viability,NCI-H2342; first compound 0.003162 µM,0.735
same,relative viability,NCI-H2342; first compound 0.01 µM,0.666
same,relative viability,NCI-H2342; first compound 0.03162 µM,0.591
same,relative viability,NCI-H2342; first compound 0.1 µM,0.754
same,relative viability,NCI-H2347; first compound 0.001 µM,0.637
same,relative viability,NCI-H2347; first compound 0.003162 µM,0.694
same,relative viability,NCI-H2347; first compound 0.01 µM,0.718
same,relative viability,NCI-H2347; first compound 0.03162 µM,0.626
same,relative viability,NCI-H2347; first compound 0.1 µM,0.601
same,relative viability,NCI-H322M; first compound 0.001 µM,0.724
same,relative viability,NCI-H322M; first compound 0.003162 µM,0.786
same,relative viability,NCI-H322M; first compound 0.01 µM,0.673
same,relative viability,NCI-H322M; first compound 0.03162 µM,0.654
same,relative viability,NCI-H322M; first compound 0.1 µM,0.898
same,relative viability,NCI-H358; first compound 0.001 µM,0.214
same,relative viability,NCI-H358; first compound 0.003162 µM,0.264
same,relative viability,NCI-H358; first compound 0.01 µM,0.229
same,relative viability,NCI-H358; first compound 0.03162 µM,0.195
same,relative viability,NCI-H358; first compound 0.1 µM,0.15
same,relative viability,NCI-H441; first compound 0.001 µM,0.295
same,relative viability,NCI-H441; first compound 0.003162 µM,0.304
same,relative viability,NCI-H441; first compound 0.01 µM,0.284
same,relative viability,NCI-H441; first compound 0.03162 µM,0.367
same,relative viability,NCI-H441; first compound 0.1 µM,0.365
same,relative viability,NCI-H522; first compound 0.01 µM,0.667
same,relative viability,NCI-H522; first compound 0.03162 µM,0.699
same,relative viability,NCI-H522; first compound 0.1 µM,0.539
same,relative viability,NCI-H647; first compound 0.001 µM,0.396
same,relative viability,NCI-H647; first compound 0.003162 µM,0.446
same,relative viability,NCI-H647; first compound 0.01 µM,0.573
same,relative viability,NCI-H647; first compound 0.03162 µM,0.448
same,relative viability,NCI-H647; first compound 0.1 µM,0.528
same,relative viability,NCI-H838; first compound 0.001 µM,0.44
same,relative viability,NCI-H838; first compound 0.003162 µM,0.532
same,relative viability,NCI-H838; first compound 0.01 µM,0.522
same,relative viability,NCI-H838; first compound 0.03162 µM,0.489
same,relative viability,NCI-H838; first compound 0.1 µM,0.637
same,relative viability,RERF-LC-KJ; first compound 0.001 µM,0.732
same,relative viability,RERF-LC-KJ; first compound 0.003162 µM,0.796
same,relative viability,RERF-LC-KJ; first compound 0.01 µM,0.771
same,relative viability,RERF-LC-KJ; first compound 0.03162 µM,0.653
same,relative viability,RERF-LC-KJ; first compound 0.1 µM,0.449
same,relative viability,SW 1573; first compound 0.001 µM,0.455
same,relative viability,SW 1573; first compound 0.003162 µM,0.622
same,relative viability,SW 1573; first compound 0.01 µM,0.924
same,relative viability,SW 1573; first compound 0.03162 µM,0.533
same,relative viability,SW 1573; first compound 0.1 µM,0.297
same,relative viability,UMC-11; first compound 0.001 µM,0.607
same,relative viability,UMC-11; first compound 0.003162 µM,0.591
same,relative viability,UMC-11; first compound 0.01 µM,0.566
same,relative viability,UMC-11; first compound 0.03162 µM,0.551
same,relative viability,UMC-11; first compound 0.1 µM,0.622
